pEC50, pKd: −log10 of the molar value.
Legend:
[1] = tested on: Glo-Response ARE-luc2P HEK293 cell line; assay: ARE luciferase reporter cell-based assay; settings: Homo sapiens, HEK293, 24 h, average of results obtained;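 further: luciferase signal tracks Nrf2 activation of the ARE once compounds disrupt KEAP1-Nrf2 binding, read with One-Glo reagent, DMSO serving as low control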
[2] = target: Kelch domain of human KEAP1 (321-624 aa) (Homo sapiens (Human), UniProt Q14145); assay: KEAP1 KELCH ThermoFluor binding assay; settings: KEAP Kelch […], 1,8-ANS, pH 7.0, average of results obtained, read-out: Tf Kd;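 further: Ligand-induced melting temperature shift of E. coli-expressed KEAP1 Kelch protein, Kd estimated from concentration-response curves of ΔTm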
Chain of Kelch domain of human KEAP1 (321-624 aa) (Q14145 321-624): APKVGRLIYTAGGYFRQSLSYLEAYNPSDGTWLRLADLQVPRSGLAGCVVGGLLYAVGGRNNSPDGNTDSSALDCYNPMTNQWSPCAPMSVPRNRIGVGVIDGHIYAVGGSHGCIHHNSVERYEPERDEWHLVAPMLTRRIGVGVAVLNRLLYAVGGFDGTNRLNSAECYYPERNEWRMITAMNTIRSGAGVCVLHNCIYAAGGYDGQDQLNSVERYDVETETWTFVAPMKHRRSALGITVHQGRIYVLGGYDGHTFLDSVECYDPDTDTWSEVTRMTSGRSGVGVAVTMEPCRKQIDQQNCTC

Row | SMILES | pEC50 [1] | pKd [2]
1 | Cc1ccc([C@H](CC(=O)O)c2ccc3c(nnn3CC3CC3)c2C)cc1CN1C[C@@]2(C)CCCN2c2ncccc2S1(=O)=O (single isomer, unassigned) [Example 82, (*S)-3-(1-(Cyclopropylmethyl)-4-methyl-1H-benzo[d][1,2,3]triazol-5-yl)-3-(4-methyl-3-(((*R)-7a-methyl-5,5-dioxido-7a,8,9,10-tetrahydropyrido[2,3-f]pyrrolo[2,1-d][1,2,5]thiadiazepin-6(7H)-yl)methyl)phenyl)propanoic Acid] | 5.47 | 7.10
2 | Cc1ccc([C@@H](c2ccn3c(C(F)(F)F)nnc3c2C)C(C)(C)C(=O)O)cc1CN1CC(C)(C)Oc2ncccc2S1(=O)=O (single isomer, unassigned) [Example 430, (*S)-3-(3-((4,4-dimethyl-1,1-dioxido-3,4-dihydro-2H-pyrido[2,3-b][1,4,5]oxathiazepin-2-yl)methyl)-4-methylphenyl)-2,2-dimethyl-3-(8-methyl-3-(trifluoromethyl)-[1,2,4]triazolo[4,3-a]pyridin-7-yl)propanoic Acid] | 6.19 | 5.11
3 | Cc1ccc([C@H](c2ccn3c(C(F)F)nnc3c2C)C(C)(C)C(=O)O)cc1CN1CC2(CCOCC2)Oc2ncccc2S1(=O)=O (single isomer, unassigned) [Example 54, (*R)-3-(3-(Difluoromethyl)-8-methyl-[1,2,4]triazolo[4,3-a]pyridin-7-yl)-3-(3-((1′,1′-dioxido-2,3,5,6-tetrahydrospiro[pyran-4,4′-pyrido[2,3-b][1,4,5]oxathiazepin]-2′(3′H)-yl)methyl)-4-methylphenyl)-2,2-dimethylpropanoic Acid] | 6.02 | 5.75
4 | Cc1cc2cc([C@@H](CC(=O)O)c3ccc(C)c(CN4C[C@H]5CCCN5c5ncccc5S4(=O)=O)c3)n(C)c2nn1 (single isomer, unassigned) [Example 435, (*S)-3-(3,7-Dimethyl-7H-pyrrolo[2,3-c]pyridazin-6-yl)-3-(3-(((R)-5,5-dioxido-7a,8,9,10-tetrahydropyrido[2,3-f]pyrrolo[2,1-d][1,2,5]thiadiazepin-6(7H)-yl)methyl)-4-methylphenyl)propanoic Acid] | < 4.70 | 6.93
5 | CCn1nnc2c(C)c(C(CC(=O)O)c3ccc(C)c(CN4CC5(CC5)Oc5ncccc5S4(=O)=O)n3)ccc21 (racemic) [Example 243, (R/S)-3-(6-((1′,1′-Dioxidospiro[cyclopropane-1,4′-pyrido[2,3-b][1,4,5]oxathiazepin]-2′(3′H)-yl)methyl)-5-methylpyridin-2-yl)-3-(1-ethyl-4-methyl-1H-benzo[d][1,2,3]triazol-5-yl)propanoic Acid] | 7.46 | > 9.00
6 | Cc1ccc(C(CC(=O)O)c2ccn3c(C(F)(F)F)nnc3c2C)nc1CN1CC2(COC2)Oc2ccccc2S1(=O)=O (stereo not drawn) [Example 484, 3-(6-((1,1-Dioxidospiro[benzo[b][1,4,5]oxathiazepine-4,3′-oxetan]-2(3H)-yl)methyl)-5-methylpyridin-2-yl)-3-(8-methyl-3-(trifluoromethyl)-[1,2,4]triazolo[4,3-a]pyridin-7-yl)propanoic Acid] | 6.65 | > 9.00
7 | Cc1ccc(C(CC(=O)O)c2cc(OC3CC3)c3c(c2)nnn3C)cc1CN1C[C@H]2CCCN2c2ncccc2S1(=O)=O (stereo partly drawn) [Example 4, 3-(7-Cyclopropoxy-1-methyl-1H-benzo[d][1,2,3]triazol-5-yl)-3-(3-(((R)-5,5-dioxido-7a,8,9,10-tetrahydropyrido[2,3-f]pyrrolo[2,1-d][1,2,5]thiadiazepin-6(7H)-yl)methyl)-4-methylphenyl)propanoic acid] | 7.10 | 9.62
8 | Cc1ccc([C@@H](CC(=O)O)c2ccc3c(nnn3C3CC3)c2C)cc1CN1CC2(COC2)Oc2ccccc2S1(=O)=O (single isomer, unassigned) [Example 216, (*R)-3-(1-Cyclopropyl-4-methyl-1H-benzo[d][1,2,3]triazol-5-yl)-3-(3-((1,1-dioxidospiro[benzo[b][1,4,5]oxathiazepine-4,3′-oxetan]-2(3H)-yl)methyl)-4-methylphenyl)propanoic Acid] | 7.42 | 8.70
9 | CC[C@@H]1CN(Cc2cc(C(CC(=O)O)c3ccn4c(C(F)(F)F)nnc4c3)ccc2C)S(=O)(=O)c2cccnc2O1 (single isomer, unassigned) [Example 258, (*R)-3-(3-(((R)-4-Ethyl-1,1-dioxido-3,4-dihydro-2H-pyrido[2,3-b][1,4,5]oxathiazepin-2-yl)methyl)-4-methylphenyl)-3-(3-(trifluoromethyl)-[1,2,4]triazolo[4,3-a]pyridin-7-yl)propanoic Acid] | 6.37 | > 9.00
10 | Cc1cc2cc(C(CC(=O)O)c3ccc(C)c(CN4C[C@H]5CCCCN5c5ncccc5S4(=O)=O)c3)n(C)c2nn1 (stereo in doubt) [Example 443, 3-(3,7-Dimethyl-7H-pyrrolo[2,3-c]pyridazin-6-yl)-3-(3-(((*R)-5,5-dioxido-7,7a,8,9,10,11-hexahydro-6H-dipyrido[2,1-d:2′,3′-f][1,2,5]thiadiazepin-6-yl)methyl)-4-methylphenyl)propanoic Acid] | 5.96 | > 9.00
11 | Cc1ccc(C(CC(=O)O)c2ccn3c(C(F)(F)F)nnc3c2)cc1CN1C[C@@H]2CCCN2c2ncccc2S1(=O)=O (stereo partly drawn) [Example 253, 3-(3-(((S)-5,5-Dioxido-7a,8,9,10-tetrahydropyrido[2,3-f]pyrrolo[2,1-d][1,2,5]thiadiazepin-6(7H)-yl)methyl)-4-methylphenyl)-3-(3-(trifluoromethyl)-[1,2,4]triazolo[4,3-a]pyridin-7-yl)propanoic Acid] | 5.93 | > 9.00
12 | Cc1ccc(C(CC(=O)O)c2ccn3c(C(F)(F)F)nnc3c2C)nc1CN1C[C@@H]2CCCCN2c2ncc(F)cc2S1(=O)=O (stereo in doubt) [Example 496, 3-(6-(((*S)-3-Fluoro-5,5-dioxido-7,7a,8,9,10,11-hexahydro-6H-dipyrido[2,1-d:2′,3′-f][1,2,5]thiadiazepin-6-yl)methyl)-5-methylpyridin-2-yl)-3-(8-methyl-3-(trifluoromethyl)-[1,2,4]triazolo[4,3-a]pyridin-7-yl)propanoic Acid] | 8.12 | > 9.00
13 | Cc1ccc([C@H](CC(=O)O)c2ccn3c(C(F)F)nnc3c2C)cc1CN1C[C@H]2COCCN2c2ncccc2S1(=O)=O (single isomer, unassigned) [Example 461, (*S)-3-(3-(Difluoromethyl)-8-methyl-[1,2,4]triazolo[4,3-a]pyridin-7-yl)-3-(3-(((*S)-5,5-dioxido-7a,8,10,11-tetrahydro-[1,4]oxazino[3,4-d]pyrido[2,3-f][1,2,5]thiadiazepin-6(7H)-yl)methyl)-4-methylphenyl)propanoic Acid] | 7.16 | 8.92
14 | CCn1nnc2c(C)c([C@@H](CC(=O)O)c3ccc(C)c(CN4C[C@@H]5CCCCN5c5ncccc5S4(=O)=O)n3)ccc21 (single isomer, unassigned) [Example 303, (*R)-3-(6-(((*S)-5,5-Dioxido-7,7a,8,9,10,11-hexahydro-6H-dipyrido[2,1-d:2′,3′-][1,2,5]thiadiazepin-6-yl)methyl)-5-methylpyridin-2-yl)-3-(1-ethyl-4-methyl-1H-benzo[d][1,2,3]triazol-5-yl)propanoic Acid] | 7.57 | > 9.00
15 | Cc1ccc([C@H](c2ccn3c(C(F)(F)F)nnc3c2)C(C)(C)C(=O)O)cc1CN1CC2(CCOCC2)Oc2ncccc2S1(=O)=O (single isomer, unassigned) [Example 321, (*R)-3-(3-((1′,1′-Dioxido-2,3,5,6-tetrahydrospiro[pyran-4,4′-pyrido[2,3-b][1,4,5]oxathiazepin]-2′(3′H)-yl)methyl)-4-methylphenyl)-2,2-dimethyl-3-(3-(trifluoromethyl)-[1,2,4]triazolo[4,3-a]pyridin-7-yl)propanoic Acid] | 7.66 | > 9.00
16 | Cc1ccc([C@@H](CC(=O)O)c2ccn3c(C(F)F)nnc3c2C)cc1CN1C[C@@H]2CCCCN2c2ncc(C#N)cc2S1(=O)=O (single isomer, unassigned) [Example 29, (*R)-3-(3-(((*S)-3-Cyano-5,5-dioxido-7,7a,8,9,10,11-hexahydro-6H-dipyrido[2,1-d:2′,3′-f][1,2,5]thiadiazepin-6-yl)methyl)-4-methylphenyl)-3-(3-(difluoromethyl)-8-methyl-[1,2,4]triazolo[4,3-a]pyridin-7-yl)propanoic Acid] | 7.29 | > 9.00
17 | Cc1ccc([C@H](c2ccn3c(C(F)(F)F)nnc3c2C)C(C)(C)C(=O)O)nc1CN1CC2(CC2)Oc2nc(OCCN3CCCC3)c(C)cc2S1(=O)=O (single isomer, unassigned) [Example 633, (*R)-2,2-Dimethyl-3-(8-methyl-3-(trifluoromethyl)-[1,2,4]triazolo[4,3-a]pyridin-7-yl)-3-(5-methyl-6-((8′-methyl-1′,1′-dioxido-7′-(2-(pyrrolidin-1-yl)ethoxy)spiro[cyclopropane-1,4′-pyrido[2,3-b][1,4,5]oxathiazepin]-2′(3′H)-yl)methyl)pyridin-2-yl)propanoic Acid] | 5.76 | 5.65
18 | Cc1ccc([C@@H](c2ccc3c(nnn3CC3CC3)c2C)C(C)(C)C(=O)O)cc1CN1CC2(CCOCC2)Oc2ncccc2S1(=O)=O (single isomer, unassigned) [Example 428, (S*)-3-(1-(cyclopropylmethyl)-4-methyl-1H-benzo[d][1,2,3]triazol-5-yl)-3-(3-((1′,1′-dioxido-2,3,5,6-tetrahydrospiro[pyran-4,4′-pyrido[2,3-b][1,4,5]oxathiazepin]-2′(3′H)-yl)methyl)-4-methylphenyl)-2,2-dimethylpropanoic Acid] | 6.40 | > 9.00

Reference: patent US10947252B2, “Inhibitors of KEAP1-Nrf2 protein-protein interaction” (Janssen Pharmaceutica NV, priority 2018, dated 2021)
